Source: US8541588B2, “Sulfonamide derivatives” (Pfizer Limited, priority 2009, dated 2013)
Read-outs that look alike come from different tables or passages of the source.

Biological target: T1, Nav1.7 (or SCN9A) channel; HEK cells stably transfected with hSCN9A (Homo sapiens, UniProt Q15858)
T1 construct: expressed in transfected cells
Assay: Nav1.7 block, PatchXpress 7000 automated whole-cell voltage clamp, estimated IC50 (EIC50)
Assay type: cell-based

[1] = estimated IC50, hSCN9A HEK cells, PatchXpress platform, Examples 283-814
[2] = PatchXpress platform, hSCN9A HEK cells held at V1/2 of inactivation, estimated IC50
[3] = estimated IC50, hSCN9A HEK cells, PatchXpress platform, Examples 815-1040

T1 sequence (Q15858 whole entry): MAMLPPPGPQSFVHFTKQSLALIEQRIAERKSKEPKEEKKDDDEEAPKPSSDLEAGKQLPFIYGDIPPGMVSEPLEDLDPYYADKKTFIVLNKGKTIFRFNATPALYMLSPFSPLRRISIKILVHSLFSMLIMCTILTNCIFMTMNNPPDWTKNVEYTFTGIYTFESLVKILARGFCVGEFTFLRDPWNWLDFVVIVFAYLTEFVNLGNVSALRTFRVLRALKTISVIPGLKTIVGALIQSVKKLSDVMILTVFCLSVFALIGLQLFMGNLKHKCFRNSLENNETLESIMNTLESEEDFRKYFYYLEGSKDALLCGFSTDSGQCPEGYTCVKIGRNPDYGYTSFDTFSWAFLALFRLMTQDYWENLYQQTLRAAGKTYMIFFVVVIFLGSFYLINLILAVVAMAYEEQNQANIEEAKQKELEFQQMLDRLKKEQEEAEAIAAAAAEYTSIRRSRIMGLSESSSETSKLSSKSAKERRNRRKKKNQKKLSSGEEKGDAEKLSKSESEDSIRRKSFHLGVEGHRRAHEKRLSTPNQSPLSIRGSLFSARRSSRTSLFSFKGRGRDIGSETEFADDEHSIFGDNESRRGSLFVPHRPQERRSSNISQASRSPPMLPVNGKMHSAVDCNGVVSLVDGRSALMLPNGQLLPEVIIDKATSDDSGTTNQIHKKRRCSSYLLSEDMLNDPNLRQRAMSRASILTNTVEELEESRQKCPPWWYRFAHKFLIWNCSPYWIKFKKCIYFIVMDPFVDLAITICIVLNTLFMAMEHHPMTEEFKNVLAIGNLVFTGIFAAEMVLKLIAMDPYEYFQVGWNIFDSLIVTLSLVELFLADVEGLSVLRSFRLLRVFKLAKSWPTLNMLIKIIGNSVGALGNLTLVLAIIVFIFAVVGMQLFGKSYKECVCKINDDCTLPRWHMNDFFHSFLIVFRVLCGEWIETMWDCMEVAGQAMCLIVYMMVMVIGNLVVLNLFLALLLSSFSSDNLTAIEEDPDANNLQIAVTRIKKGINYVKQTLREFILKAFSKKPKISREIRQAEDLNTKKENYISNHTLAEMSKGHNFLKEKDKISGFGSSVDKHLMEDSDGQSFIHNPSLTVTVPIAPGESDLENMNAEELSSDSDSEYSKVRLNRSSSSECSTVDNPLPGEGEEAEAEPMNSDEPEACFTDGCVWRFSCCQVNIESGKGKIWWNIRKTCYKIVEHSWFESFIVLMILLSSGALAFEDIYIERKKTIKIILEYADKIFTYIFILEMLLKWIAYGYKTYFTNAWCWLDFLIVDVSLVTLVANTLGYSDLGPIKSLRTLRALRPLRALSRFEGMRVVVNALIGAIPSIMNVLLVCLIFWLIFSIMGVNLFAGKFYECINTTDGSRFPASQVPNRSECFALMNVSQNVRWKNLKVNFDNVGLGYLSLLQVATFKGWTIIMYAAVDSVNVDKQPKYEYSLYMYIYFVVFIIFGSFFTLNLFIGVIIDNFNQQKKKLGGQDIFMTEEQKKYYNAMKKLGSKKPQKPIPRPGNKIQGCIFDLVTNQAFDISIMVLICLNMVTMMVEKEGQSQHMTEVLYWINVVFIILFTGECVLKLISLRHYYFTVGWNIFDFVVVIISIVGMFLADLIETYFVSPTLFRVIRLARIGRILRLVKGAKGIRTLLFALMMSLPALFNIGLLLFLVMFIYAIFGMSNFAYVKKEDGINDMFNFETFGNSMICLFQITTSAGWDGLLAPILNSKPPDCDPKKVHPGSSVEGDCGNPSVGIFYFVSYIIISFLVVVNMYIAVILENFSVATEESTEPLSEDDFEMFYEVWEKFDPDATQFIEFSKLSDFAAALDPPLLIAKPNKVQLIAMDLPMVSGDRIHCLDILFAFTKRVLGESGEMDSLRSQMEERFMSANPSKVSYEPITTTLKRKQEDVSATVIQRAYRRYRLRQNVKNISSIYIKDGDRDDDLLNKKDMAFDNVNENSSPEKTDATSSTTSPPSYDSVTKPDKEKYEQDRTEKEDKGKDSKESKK

Row | IC50 [1] [nM] | IC50 [2] [nM] | SMILES | other results
1 | 33 |  | Cn1nccc1-c1cc(C(F)(F)F)ccc1Oc1ccc(S(=O)(=O)Nc2ncc(F)s2)cc1C#N [Example 718, 3-cyano-N-(5-fluoro-1,3-thiazol-2-yl)-4-[2-(1-methyl-1H-pyrazol-5-yl)-4-(trifluoromethyl)phenoxy]benzenesulfonamide] | 
2 | 1700 |  | N#Cc1cc(S(=O)(=O)Nc2nccs2)ccc1Oc1ccc(-c2cccc(C(F)(F)F)n2)cc1 [Example 453, 3-cyano-N-1,3-thiazol-2-yl-4-{4-[6-(trifluoromethyl)pyridin-2-yl]phenoxy}benzenesulfonamide] | 
3 | 170 |  | O=S(=O)(Nc1nncs1)c1cc(Cl)c(Oc2ccc(Cl)cc2-c2ccnn2CCO)cc1F [Example 748, 5-chloro-4-{4-chloro-2-[1-(2-hydroxyethyl)-1H-pyrazol-5-yl]phenoxy}-2-fluoro-N-1,3,4-thiadiazol-2-ylbenzenesulfonamide] | 
4 |  | 90 | CC(C)Oc1cccc(-c2ccccc2Oc2ccc(S(=O)(=O)Nc3ncns3)cc2C#N)c1 [Example 34, 3-cyano-4-[(3′-isopropoxybiphenyl-2-yl)oxy]-N-1,2,4-thiadiazol-5-ylbenzenesulfonamide] | 
5 | 20 |  | Cn1nccc1-c1cc(Cl)ccc1Oc1ccc(S(=O)(=O)Nc2ncc(Cl)s2)cc1C#N [Example 597, 4-[4-Chloro-2-(1-methyl-1H-pyrazol-5-yl)phenoxy]-N-(5-chloro-1,3-thiazol-2-yl)-3-cyanobenzenesulfonamide] | 
6 | 18 |  | Cn1nccc1-c1cc(F)ccc1Oc1cc(F)c(S(=O)(=O)Nc2cscn2)cc1Br [Example 625, 5-bromo-2-fluoro-4-[4-fluoro-2-(1-methyl-1H-pyrazol-5-yl)phenoxy]-N-1,3-thiazol-4-ylbenzenesulfonamide] | 
7 |  | 35900 | CCc1ccc(-c2ncccc2Oc2ccc(S(=O)(=O)Nc3ncns3)cc2C#N)cc1 [Example 7, 3-cyano-4-{[2-(4-ethylphenyl)pyridin-3-yl]oxy}-N-1,2,4-thiadiazol-5-ylbenzenesulfonamide] | 
8 | 51000 |  | Cn1nccc1-c1cc(Cl)ccc1Oc1ccc(S(=O)(=O)Nc2ncc(C(F)(F)F)cn2)cc1C#N [Example 462, 4-[4-chloro-2-(1-methyl-1H-pyrazol-5-yl)phenoxy]-3-cyano-N-[5-(trifluoromethyl)pyrimidin-2-yl]benzenesulfonamide] | 
9 | 1300 |  | O=S(=O)(Nc1cscn1)c1cc(Cl)c(Oc2ccc(Cl)cc2-c2cnn[nH]2)cc1F [Example 777, 5-chloro-4-[4-chloro-2-(1H-1,2,3-triazol-5-yl)phenoxy]-2-fluoro-N--thiazol-4-ylbenzenesulfonamide] | 
10 | 38 |  | N#Cc1cc(S(=O)(=O)Nc2cscn2)ccc1Oc1ccc(Cl)cc1-c1ccnn1C1CNC1 [Example 809, 4-[2-(1-azetidin-3-yl-1H-pyrazol-5-yl)-4-chlorophenoxy]-3-cyano-N-1,3-thiazol-4-ylbenzenesulfonamide] | 
11 |  |  | N#Cc1cc(S(=O)(=O)Nc2ncns2)ccc1Oc1cc(OC(F)(F)F)ccc1-c1ccnnc1 [Example 957, 3-cyano-4-[2-pyridazin-4-yl-5-(trifluoromethoxy)phenoxy]-N-1,2,4-thiadiazol-5-ylbenzenesulfonamide] | IC50 [3]: 22 nM
12 |  | >300 | CCn1nc(C)c(-c2ccccc2Oc2ccc(S(=O)(=O)Nc3ncns3)cc2C#N)c1C [Example 72, 3-cyano-4-[2-(1-ethyl-3,5-dimethyl-1H-pyrazol-4-yl)phenoxy]-N-1,2,4-thiadiazol-5-ylbenzenesulfonamide] | 
13 | >1000 |  | CC(C)(C)n1ccc(-c2cc(F)ccc2Oc2cc(F)c(S(=O)(=O)Nc3cscn3)cc2Cl)n1 [Example 520, 4-[2-(1-tert-butyl-1H-pyrazol-3-yl)-4-fluorophenoxy]-5-chloro-2-fluoro-N-1,3-thiazol-4-ylbenzenesulfonamide] | 
14 |  |  | O=S(=O)(Nc1ncns1)c1cc(F)c(Oc2ccc(C(F)(F)F)cc2C2=CCNCC2)cc1F [Example 733, 2,5-difluoro-4-[2-(1,2,3,6-tetrahydropyridin-4-yl)-4-(trifluoromethyl)phenoxy]-N-1,2,4-thiadiazol-5-ylbenzenesulfonamide] | IC50: 10 nM
15 |  |  | O=S(=O)(Nc1ncns1)c1cc(F)c(Oc2ccc(C(F)(F)F)cc2-c2ccc(Cl)nn2)cc1F [Example 904, 4-[2-(6-chloropyridazin-3-yl)-4-(trifluoromethyl)phenoxy]-2,5-difluoro-N-1,2,4-thiadiazol-5-ylbenzenesulfonamide] | IC50 [3]: 390 nM
16 | 1800 |  | Cn1nccc1-c1ccc(Oc2ccc(S(=O)(=O)Nc3nccs3)cc2C#N)cc1Cl [Example 443, 4-[3-chloro-4-(1-methyl-1H-pyrazol-5-yl)phenoxy]-3-cyano-N-1,3-thiazol-2-ylbenzenesulfonamide] | 
17 |  | 4160 | N#Cc1cc(S(=O)(=O)Nc2ccncn2)ccc1Oc1ccccc1-c1ccccc1 [Example 106, 4-(biphenyl-2-yloxy)-3-cyano-N-pyrimidin-4-ylbenzenesulfonamide] | 
18 |  | 770 | N#Cc1cc(S(=O)(=O)Nc2ncns2)ccc1Oc1ccccc1Oc1ccccc1 [Example 68, 3-cyano-4-(2-phenoxyphenoxy)-N-1,2,4-thiadiazol-5-ylbenzenesulfonamide] | 
19 |  | 410 | COCc1ccc(-c2cc(F)ccc2Oc2ccc(S(=O)(=O)Nc3nccs3)cc2C#N)cc1 [Example 163, 3-cyano-4-{[5-fluoro-4′-(methoxymethyl)biphenyl-2-yl]oxy}-N-1,3-thiazol-2-ylbenzenesulfonamide] | 
20 | 3.5 |  | Nc1cc(-c2cc(Cl)ccc2Oc2cc(F)c(S(=O)(=O)Nc3ncns3)cc2Cl)ccn1 [Example 732, 4-[2-(2-aminopyridin-4-yl)-4-chlorophenoxy]-5-chloro-2-fluoro-N-1,2,4-thiadiazol-5-ylbenzenesulfonamide] | 
21 | 12 |  | N#Cc1cc(S(=O)(=O)Nc2ncns2)ccc1Oc1ccc(Cl)cc1-c1ccnc(Cl)c1 [Example 743, 4-[4-chloro-2-(2-chloropyridin-4-yl)phenoxy]-3-cyano-N-1,2,4-thiadiazol-5-ylbenzenesulfonamide] | 
22 |  |  | Cc1ncccc1-c1cc(Cl)ccc1Oc1ccc(S(=O)(=O)Nc2ncns2)cc1C#N [Example 1009, 4-[4-chloro-2-(2-methylpyridin-3-yl)phenoxy]-3-cyano-N-1,2,4-thiadiazol-5-ylbenzenesulfonamide] | IC50 [3]: 21 nM
23 |  | 3080 | Cn1ccc(-c2ccc(Oc3ccc(S(=O)(=O)Nc4nccs4)cc3C#N)c(Cl)c2)n1 [Example 178, 4-(2-chloro-4-(1-methyl-1H-pyrazol-3-yl)phenoxy)-3-cyano-N-(thiazol-2-yl)benzenesulfonamide] | 
24 |  |  | O=C(c1cccc(-c2cc(Cl)ccc2Oc2cc(F)c(S(=O)(=O)Nc3ncns3)cc2F)c1)N1CCC1 [Example 855, 4-{[3′-(azetidin-1-ylcarbonyl)-5-chlorobiphenyl-2-yl]oxy}-2,5-difluoro-N-1,2,4-thiadiazol-5-ylbenzenesulfonamide] | IC50 [3]: 4.2 nM
25 |  |  | N#Cc1cc(S(=O)(=O)Nc2ncns2)ccc1Oc1ccc(Cl)cc1-c1cc(N2CCNCC2)ncn1 [Example 875, 4-[4-chloro-2-(6-piperazin-1-ylpyrimidin-4-yl)phenoxy]-3-cyano-N-1,2,4-thiadiazol-5-ylbenzenesulfonamide] | IC50 [3]: 50 nM
26 |  | 450 | N#Cc1cc(S(=O)(=O)Nc2ncns2)ccc1Oc1ccc(F)cc1-c1ccnn1CC(F)(F)F [Example 26, 3-cyano-4-(4-fluoro-2-(1-(2,2,2-trifluoroethyl)-1H-pyrazol-5-yl)phenoxy)-N-(1,2,4-thiadiazol-5-yl)benzenesulfonamide] | 
